Measurements reported in ChEMBL document CHEMBL1201861, “Genomics of Drug Sensitity in Cancer screening data, Wellcome Trust Sanger Institute”.

Assays:
Assay in all cases: cells
CW-2 = format: functional, cell-based, Homo sapiens; details: Homo sapiens, CW-2;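 also: growth inhibition of CW-2 cells, read out by a cell viability assay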
Description: SANGER: Inhibition of human CW-2 cell growth in a cell viability assay.

D-336MG = format: functional, cell-based, Homo sapiens; details: Homo sapiens, D-336MG
Description: SANGER: Inhibition of human D-336MG cell growth in a cell viability assay.

DOHH-2 = format: functional, cell-based; details: Homo sapiens;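 also: growth inhibition of human DOHH-2 cells, read out with a cell viability assay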
Description: SANGER: Inhibition of human DOHH-2 cell growth in a cell viability assay.

DOK = format: functional, cell-based, Homo sapiens; details: Homo sapiens, DOK;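 also: cell viability assay read-out, values reflect inhibition of cell growth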
Description: SANGER: Inhibition of human DOK cell growth in a cell viability assay.

EM-2 = format: functional, cell-based; details: Homo sapiens;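 also: growth inhibition of EM-2 cells, read out with a cell viability assay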
Description: SANGER: Inhibition of human EM-2 cell growth in a cell viability assay.

FaDu = format: functional, cell-based, Homo sapiens; details: Homo sapiens, FaDu;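 also: cell viability readout of growth inhibition in FaDu cells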
Description: SANGER: Inhibition of human FADU cell growth in a cell viability assay.

G-402 = format: functional, cell-based, Homo sapiens; details: Homo sapiens, G-402
Description: SANGER: Inhibition of human G-402 cell growth in a cell viability assay.

GT3TKB = format: functional, cell-based, Homo sapiens; details: Homo sapiens, GT3TKB;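 also: growth inhibition of the cell line, read out with a cell viability assay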
Description: SANGER: Inhibition of human GT3TKB cell growth in a cell viability assay.

HCC1419 = format: functional, cell-based, Homo sapiens; details: Homo sapiens, HCC1419;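 also: growth inhibition of human HCC1419 cells, read out as cell viability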
Description: SANGER: Inhibition of human HCC1419 cell growth in a cell viability assay.

HCT-116 = format: functional, cell-based, Homo sapiens; details: Homo sapiens, HCT-116
Description: SANGER: Inhibition of human HCT-116 cell growth in a cell viability assay.

HEC-1 = format: functional, cell-based, Homo sapiens; details: Homo sapiens, HEC-1;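 also: growth inhibition of the cell line, read out with a cell viability assay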
Description: SANGER: Inhibition of human HEC-1 cell growth in a cell viability assay.

HGC-27 = format: functional, cell-based, Homo sapiens; details: Homo sapiens, HGC-27;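 also: growth inhibition of human HGC-27 cells, read out in a cell viability assay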
Description: SANGER: Inhibition of human HGC-27 cell growth in a cell viability assay.

HO-1-N-1 = format: functional, cell-based, Homo sapiens; details: Homo sapiens, HO-1-N-1;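 also: growth inhibition of human HO-1-N-1 cells, read out with a cell viability assay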
Description: SANGER: Inhibition of human HO-1-N-1 cell growth in a cell viability assay.

HT-3 = format: functional, cell-based, Homo sapiens; details: Homo sapiens, HT-3;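 also: growth inhibition measured with a cell viability readout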
Description: SANGER: Inhibition of human HT-3 cell growth in a cell viability assay.

HuP-T3 = format: functional, cell-based, Homo sapiens; details: Homo sapiens, HuP-T3;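 also: HuP-T3 cell growth inhibition, read out with a cell viability assay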
Description: SANGER: Inhibition of human HuP-T3 cell growth in a cell viability assay.

KGN = format: functional, cell-based, Homo sapiens; details: Homo sapiens, KGN;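 also: growth inhibition of KGN cells, read out with a cell viability assay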
Description: SANGER: Inhibition of human KGN cell growth in a cell viability assay.

KM12 = format: functional, cell-based, Homo sapiens; details: Homo sapiens, KM12;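 also: KM12 cell growth inhibition, read out with a cell viability assay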
Description: SANGER: Inhibition of human KM12 cell growth in a cell viability assay.

LB831-BLC = format: functional, cell-based, Homo sapiens; details: Homo sapiens, LB831-BLC;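 also: growth inhibition of LB831-BLC cells, read out with a cell viability assay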
Description: SANGER: Inhibition of human LB831-BLC cell growth in a cell viability assay.

LNCaP-Clone-FGC = format: functional, cell-based, Homo sapiens; details: Homo sapiens, LNCaP-Clone-FGC
Description: SANGER: Inhibition of human LNCaP-Clone-FGC cell growth in a cell viability assay.

LS-123 = format: functional, cell-based, Homo sapiens; details: Homo sapiens, LS-123
Description: SANGER: Inhibition of human LS-123 cell growth in a cell viability assay.

MC116 = format: functional, cell-based; details: Homo sapiens;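 also: growth inhibition of MC116 cells, read out with a cell viability assay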
Description: SANGER: Inhibition of human MC116 cell growth in a cell viability assay.

MDA-MB-231 = format: functional, cell-based, Homo sapiens; details: Homo sapiens, MDA-MB-231
Description: SANGER: Inhibition of human MDA-MB-231 cell growth in a cell viability assay.

MFM-223 = format: functional, cell-based, Homo sapiens; details: Homo sapiens, MFM-223
Description: SANGER: Inhibition of human MFM-223 cell growth in a cell viability assay.

MOLT-4 = format: functional, cell-based; details: Homo sapiens;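 also: growth inhibition of MOLT-4 cells, determined with a cell viability readout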
Description: SANGER: Inhibition of human MOLT-4 cell growth in a cell viability assay.

Mo = format: functional, cell-based; details: Homo sapiens
Description: SANGER: Inhibition of human Mo-T cell growth in a cell viability assay.

NCI-H1693 = format: functional, cell-based, Homo sapiens; details: Homo sapiens, NCI-H1693;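 also: growth inhibition of the human cell line, read out with a cell viability assay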
Description: SANGER: Inhibition of human NCI-H1693 cell growth in a cell viability assay.

NCI-H2087 = format: functional, cell-based, Homo sapiens; details: Homo sapiens, NCI-H2087;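 also: growth inhibition determined with a cell viability readout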
Description: SANGER: Inhibition of human NCI-H2087 cell growth in a cell viability assay.

SNU-5 = format: functional, cell-based; details: Homo sapiens;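 also: cell viability readout used to measure growth inhibition in human NCI-SNU-5 cells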
Description: SANGER: Inhibition of human NCI-SNU-5 cell growth in a cell viability assay.

NTERA-2-cl-D1 = format: functional, cell-based, Homo sapiens; details: Homo sapiens, NTERA-2-cl-D1;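 also: inhibition of cell growth, measured with a cell viability assay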
Description: SANGER: Inhibition of human NTERA-S-cl-D1 cell growth in a cell viability assay.

OCI-AML2 = format: functional, cell-based; details: Homo sapiens;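 also: growth inhibition of OCI-AML2 cells, read out with a cell viability assay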
Description: SANGER: Inhibition of human OCI-AML2 cell growth in a cell viability assay.

RPMI-7951 = format: functional, cell-based, Homo sapiens; details: Homo sapiens, RPMI-7951
Description: SANGER: Inhibition of human RPMI-7951 cell growth in a cell viability assay.

SF-539 = format: functional, cell-based, Homo sapiens; details: Homo sapiens, SF-539;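 also: Read-out is a cell viability assay, with IC50 reflecting inhibition of cell growth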
Description: SANGER: Inhibition of human SF539 cell growth in a cell viability assay.

SK-MEL-1 = format: functional, cell-based; details: Homo sapiens;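 also: growth inhibition of human SK-MEL-1 cells, read out by a cell viability assay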
Description: SANGER: Inhibition of human SK-MEL-1 cell growth in a cell viability assay.

SK-MEL-2 = format: functional, cell-based, Homo sapiens; details: Homo sapiens, SK-MEL-2;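 also: growth inhibition of human SK-MEL-2 cells measured with a cell viability assay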
Description: SANGER: Inhibition of human SK-MEL-2 cell growth in a cell viability assay.

SK-MES-1 = format: functional, cell-based, Homo sapiens; details: Homo sapiens, SK-MES-1;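 also: growth inhibition of human SK-MES-1 cells, read out with a cell viability assay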
Description: SANGER: Inhibition of human SK-MES-1 cell growth in a cell viability assay.

SK-NEP-1 = format: functional, cell-based; details: Homo sapiens;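 also: growth inhibition of human SK-NEP-1 cells, read out by a cell viability assay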
Description: SANGER: Inhibition of human SK-NEP-1 cell growth in a cell viability assay.

T98G = format: functional, cell-based, Homo sapiens; details: Homo sapiens, T98G;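 also: growth inhibition of T98G cells, read out by a cell viability assay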
Description: SANGER: Inhibition of human T98G cell growth in a cell viability assay.

8305C = format: functional, cell-based, Homo sapiens; details: Homo sapiens, 8305C
Description: SANGER: Inhibition of human 8305C cell growth in a cell viability assay.

A204 = format: functional, cell-based, Homo sapiens; details: Homo sapiens, A204;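 also: growth inhibition of human A204 cells, read out with a cell viability assay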
Description: SANGER: Inhibition of human A204 cell growth in a cell viability assay.

A673 = format: functional, cell-based, Homo sapiens; details: Homo sapiens, A673;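 also: growth inhibition of human A673 cells, read out through a cell viability assay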
Description: SANGER: Inhibition of human A673 cell growth in a cell viability assay.

ACHN = format: functional, cell-based, Homo sapiens; details: Homo sapiens, ACHN;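 also: cell viability read-out used to gauge how strongly growth of human ACHN cells is suppressed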
Description: SANGER: Inhibition of human ACHN cell growth in a cell viability assay.

ASPC1 = format: functional, cell-based, Homo sapiens; details: Homo sapiens, ASPC1;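 also: growth inhibition of AsPC-1 cells, read out with a cell viability assay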
Description: SANGER: Inhibition of human AsPC-1 cell growth in a cell viability assay.

BFTC-909 = format: functional, cell-based, Homo sapiens; details: Homo sapiens, BFTC-909
Description: SANGER: Inhibition of human BFTC-909 cell growth in a cell viability assay.

BT-20 = format: functional, cell-based, Homo sapiens; details: Homo sapiens, BT-20;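 also: cell viability assay measuring suppression of growth in human BT-20 cells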
Description: SANGER: Inhibition of human BT-20 cell growth in a cell viability assay.

C2BBe1 = format: functional, cell-based, Homo sapiens; details: Homo sapiens, C2BBe1;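 also: growth inhibition of C2BBe1 cells, read out through a viability assay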
Description: SANGER: Inhibition of human C2BBe1 cell growth in a cell viability assay.

CAL-54 = format: functional, cell-based, Homo sapiens; details: Homo sapiens, CAL-54;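 also: growth inhibition of CAL-54 cells, read out by a viability measurement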
Description: SANGER: Inhibition of human CAL-54 cell growth in a cell viability assay.

VM-CUB-1 = format: functional, cell-based; details: Homo sapiens;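 also: cell viability assay measuring growth inhibition of the human VM-CUB-1 cell line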
Description: SANGER: Inhibition of human VM-CUB-1 cell growth in a cell viability assay.

YAPC = format: functional, cell-based, Homo sapiens; details: Homo sapiens, YAPC;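 also: growth inhibition of YAPC cells, measured with a cell viability assay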
Description: SANGER: Inhibition of human YAPC cell growth in a cell viability assay.

no-10 = format: functional, cell-based, Homo sapiens; details: Homo sapiens;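 also: growth inhibition of no-10 cells, read out with a cell viability assay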
Description: SANGER: Inhibition of human no-10 cell growth in a cell viability assay.

CAS-1 = format: functional, cell-based, Homo sapiens; details: Homo sapiens, CAS-1;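 also: growth inhibition of CAS-1 cells, measured with a cell viability assay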
Description: SANGER: Inhibition of human CAS-1 cell growth in a cell viability assay.

EW-3 = format: functional, cell-based; details: Homo sapiens;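 also: cell viability assay read-out, IC50 reflects inhibition of growth of the EW-3 cells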
Description: SANGER: Inhibition of human EW-3 cell growth in a cell viability assay.

HCC2218 = format: functional, cell-based; details: Homo sapiens;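 also: cell viability assay read-out, with IC50 given as the concentration that inhibits growth of the cell line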
Description: SANGER: Inhibition of human HCC2218 cell growth in a cell viability assay.

In the case of `Cn1cc(C2=C(c3ccc(Cl)cc3Cl)C(=O)NC2=O)c2ccccc21` [SB-216763], the IC50 (CW-2) is reported as greater than 10 µM, the IC50 (D-336MG) is reported as greater than 10 µM and the IC50 (DOHH-2) is reported as greater than 10 µM. For the same compound, the IC50 (DOK) was greater than 10 µM, the IC50 (EM-2) was greater than 10 µM and the IC50 (FaDu) was greater than 10 µM. For the same compound, the IC50 (G-402) was greater than 10 µM, the IC50 (GT3TKB) was greater than 10 µM and the IC50 (HCC1419) was greater than 10 µM. For the same compound, the IC50 (HCT-116) was greater than 10 µM, the IC50 (HEC-1) was greater than 10 µM and the IC50 (HGC-27) was greater than 10 µM. For the same compound, the IC50 (HO-1-N-1) was greater than 10 µM, the IC50 (HT-3) was greater than 10 µM and the IC50 (HuP-T3) was greater than 10 µM. The IC50 (KGN) was greater than 10 µM, the IC50 (KM12) was greater than 10 µM and the IC50 (LB831-BLC) was greater than 10 µM. It also gave an IC50 (LNCaP-Clone-FGC) greater than 10 µM, an IC50 (LS-123) greater than 10 µM and an IC50 (MC116) greater than 10 µM. For the same compound, the IC50 (MDA-MB-231) was greater than 10 µM, the IC50 (MFM-223) was greater than 10 µM and the IC50 (MOLT-4) was greater than 10 µM. The IC50 (Mo) was greater than 10 µM, the IC50 (NCI-H1693) was greater than 10 µM and the IC50 (NCI-H2087) was greater than 10 µM. For the same compound, the IC50 (SNU-5) was greater than 10 µM, the IC50 (NTERA-2-cl-D1) was greater than 10 µM and the IC50 (OCI-AML2) was greater than 10 µM. For the same compound, the IC50 (RPMI-7951) was greater than 10 µM, the IC50 (SF-539) was greater than 10 µM and the IC50 (SK-MEL-1) was greater than 10 µM. The IC50 (SK-MEL-2) was greater than 10 µM, the IC50 (SK-MES-1) was greater than 10 µM and the IC50 (SK-NEP-1) was greater than 10 µM. It also gave an IC50 (T98G) greater than 10 µM, an IC50 (8305C) greater than 10 µM and an IC50 (A204) greater than 10 µM. It also gave an IC50 (A673) greater than 10 µM, an IC50 (ACHN) greater than 10 µM and an IC50 (ASPC1) greater than 10 µM. It also gave an IC50 (BFTC-909) greater than 10 µM, an IC50 (BT-20) greater than 10 µM and an IC50 (C2BBe1) greater than 10 µM. It also gave an IC50 (CAL-54) greater than 10 µM, an IC50 (VM-CUB-1) greater than 10 µM and an IC50 (YAPC) greater than 10 µM. It also gave an IC50 (no-10) greater than 10 µM and an IC50 (CAS-1) greater than 10 µM.
Compound `O=c1cc(-c2cccc3c2Sc2ccccc2S3)oc(N2CCOCC2)c1` [KU-55933] has an IC50 (CW-2) greater than 10 µM, an IC50 (D-336MG) greater than 10 µM and an IC50 (DOHH-2) greater than 10 µM. It also gave an IC50 (DOK) greater than 10 µM, an IC50 (EM-2) greater than 10 µM and an IC50 (FaDu) greater than 10 µM. For the same compound, the IC50 (G-402) was greater than 10 µM, the IC50 (GT3TKB) was greater than 10 µM and the IC50 (HCC1419) was greater than 10 µM. It also gave an IC50 (HCT-116) greater than 10 µM, an IC50 (HEC-1) greater than 10 µM and an IC50 (HGC-27) greater than 10 µM. For the same compound, the IC50 (HO-1-N-1) was greater than 10 µM, the IC50 (HT-3) was greater than 10 µM and the IC50 (HuP-T3) was greater than 10 µM. For the same compound, the IC50 (KGN) was greater than 10 µM, the IC50 (KM12) was 9.21 µM and the IC50 (LB831-BLC) was greater than 10 µM. It also gave an IC50 (LNCaP-Clone-FGC) greater than 10 µM, an IC50 (LS-123) greater than 10 µM and an IC50 (MC116) greater than 10 µM. The IC50 (MDA-MB-231) was greater than 10 µM, the IC50 (MFM-223) was greater than 10 µM and the IC50 (MOLT-4) was greater than 10 µM. The IC50 (Mo) was greater than 10 µM, the IC50 (NCI-H1693) was greater than 10 µM and the IC50 (NCI-H2087) was greater than 10 µM. For the same compound, the IC50 (NTERA-2-cl-D1) was greater than 10 µM, the IC50 (OCI-AML2) was greater than 10 µM and the IC50 (RPMI-7951) was greater than 10 µM. It also gave an IC50 (SF-539) greater than 10 µM, an IC50 (SK-MEL-1) greater than 10 µM and an IC50 (SK-MEL-2) greater than 10 µM. For the same compound, the IC50 (SK-MES-1) was greater than 10 µM, the IC50 (SK-NEP-1) was greater than 10 µM and the IC50 (T98G) was greater than 10 µM. The IC50 (8305C) was greater than 10 µM, the IC50 (A204) was greater than 10 µM and the IC50 (A673) was greater than 10 µM. For the same compound, the IC50 (ACHN) was greater than 10 µM, the IC50 (ASPC1) was greater than 10 µM and the IC50 (BFTC-909) was greater than 10 µM. The IC50 (BT-20) was greater than 10 µM, the IC50 (C2BBe1) was greater than 10 µM and the IC50 (CAL-54) was greater than 10 µM. The IC50 (VM-CUB-1) was greater than 10 µM, the IC50 (YAPC) was greater than 10 µM and the IC50 (no-10) was greater than 10 µM. The IC50 (CAS-1) was greater than 10 µM.
For `Cn1cncc1[C@@](N)(c1ccc(Cl)cc1)c1ccc2c(c1)c(-c1cccc(Cl)c1)cc(=O)n2C` [TIPIFARNIB], the IC50 (CW-2) was greater than 16 µM, the IC50 (DOHH-2) was 7.91 µM and the IC50 (DOK) was greater than 16 µM. It also gave an IC50 (EM-2) greater than 16 µM, an IC50 (EW-3) greater than 16 µM and an IC50 (FaDu) of 8.38 µM. It also gave an IC50 (G-402) of 2.11 µM, an IC50 (GT3TKB) of 3.01 µM and an IC50 (HCC1419) of 4.65 µM. For the same compound, the IC50 (HCC2218) was greater than 16 µM, the IC50 (HCT-116) was 4.88 µM and the IC50 (HEC-1) was 7.15 µM. For the same compound, the IC50 (HGC-27) was 1.32 µM, the IC50 (HO-1-N-1) was 10.5 µM and the IC50 (HT-3) was greater than 16 µM. It also gave an IC50 (HuP-T3) greater than 16 µM, an IC50 (KGN) of 0.452 µM and an IC50 (KM12) of 0.117 µM. For the same compound, the IC50 (LB831-BLC) was 2.64 µM, the IC50 (LNCaP-Clone-FGC) was 11.5 µM and the IC50 (LS-123) was 2.11 µM. The IC50 (MC116) was 4.03 µM, the IC50 (MDA-MB-231) was 5.83 µM and the IC50 (MFM-223) was greater than 16 µM. The IC50 (MOLT-4) was 4.91 µM, the IC50 (Mo) was greater than 16 µM and the IC50 (NCI-H1693) was greater than 16 µM. It also gave an IC50 (NCI-H2087) of 2.28 µM, an IC50 (SNU-5) greater than 16 µM and an IC50 (NTERA-2-cl-D1) of 0.237 µM. For the same compound, the IC50 (OCI-AML2) was 2.03 µM, the IC50 (RPMI-7951) was 13.5 µM and the IC50 (SF-539) was greater than 16 µM. It also gave an IC50 (SK-MEL-1) greater than 16 µM, an IC50 (SK-MEL-2) of 0.484 µM and an IC50 (SK-MES-1) of 1.91 µM. The IC50 (SK-NEP-1) was 9.94 µM, the IC50 (T98G) was 11.8 µM and the IC50 (8305C) was 0.976 µM. For the same compound, the IC50 (A204) was 3.58 µM, the IC50 (A673) was 15.3 µM and the IC50 (ACHN) was 1.12 µM. It also gave an IC50 (ASPC1) greater than 16 µM, an IC50 (BFTC-909) of 8.37 µM and an IC50 (BT-20) greater than 16 µM. For the same compound, the IC50 (C2BBe1) was greater than 16 µM, the IC50 (CAL-54) was 11.9 µM and the IC50 (VM-CUB-1) was 5.76 µM. For the same compound, the IC50 (YAPC) was greater than 16 µM, the IC50 (no-10) was greater than 16 µM and the IC50 (CAS-1) was greater than 16 µM.
